Measurements: patent US20100197757A1, “OXINDOLES AS KINASE INHIBITORS” (priority 2005, published 2010)

Tested on: MEK
Assay: IC50 column of the compound table in Example 1 (assay not given)

IC50 | Compound
1100 nM | N/C(=C1\C(=O)Nc2cc(Cl)ccc21)c1ccccc1 [No. a, 3-(Amino-phenyl-methylene)-6-chloro-1,3-dihydro-indol-2-one]
260 nM | N/C(=C1\C(=O)Nc2ccc(Cl)cc21)c1ccccc1 [No. b, 3-(Amino-phenyl-methylene)-5-chloro-1,3-dihydro-indol-2-one]
940 nM | N/C(=C1\C(=O)Nc2ccccc21)c1ccc(O)cc1 [No. c, 3-[Amino-(4-hydroxy-phenyl)-methylene]-1,3-dihydro-indol-2-one]
2700 nM | N/C(=C1\C(=O)Nc2ccccc21)c1ccc(I)cc1 [No. d, 3-[Amino-(4-iodo-phenyl)-methylene]-1,3-dihydro-indol-2-one]
4100 nM | N/C(=C1\C(=O)Nc2cc(Cl)ccc21)c1ccc(I)cc1 [No. e, 3-(Amino-(4-iodo-phenyl)-methylene)-6-chloro-1,3-dihydro-indol-2-one]
1100 nM | N/C(=C1\C(=O)Nc2ccc(Cl)cc21)c1ccc(I)cc1 [No. f, 3-(Amino-(4-iodo-phenyl)-methylene)-5-chloro-1,3-dihydro-indol-2-one]
3400 nM | N/C(=C1\C(=O)Nc2ccc(Br)cc21)c1cccc(I)c1 [No. n, 3-(Amino-(3-iodo-phenyl)-methylene)-5-bromo-1,3-dihydro-indol-2-one]
3100 nM | COc1ccc(/C(N)=C2/C(=O)Nc3ccccc32)cc1 [No. o, 3-[Amino-(4-methoxy-phenyl)methylene]-1,3-dihydro-indol-2-one]
8700 nM | COc1ccc(/C(N)=C2/C(=O)Nc3cc(Cl)ccc32)cc1 [No. p, 3-(Amino-(4-methoxy-phenyl)-methylene)-6-chloro-1,3-dihydro-indol-2-one]
